Test results reported in patent US20230313146A1, “INTESTINAL EPITHELIAL CELL CULTURES” (ARDELYX, INC., priority 2017, published 2023).

Tests used:
Assay type in all cases: cell-based
[1] = tested on: human distal colonic cultures; assay: Seeding media comparison in human distal colonic monolayer cultures (TEER, RNA profile); settings: thiazovivin substituted for Y-27632 in the seeding media (WENRAT)
Protocol: Organoids were typically grown for 7-12 days before being used to plate monolayer cultures. Organoid cultures embedded in Matrigel were broken apart in growth media and pooled in a 15 mL conical tube. The cells were centrifuged at 600×g for 3 minutes and resuspended in TrypLE Express and placed in a water bath at 37° C. for 3 minutes. The cells were then removed and pipetted up and down for 7 minutes. BM was added to quench the reaction, and the cell suspension was centrifuged at 600×g for 3 minutes, resuspended in BM, and counted.
Media conditions used for murine colon growth and differentiation were optimized for human distal colon cultures using the water-absorption phenotype characteristic of this segment. The effects of seeding and differentiation media alterations on human distal colon cultures were determined by comparing two seeding medias (WENRAT or WENRNicAST) and three differentiation medias (WENR, ENRA, and ENR). […] Murine colonic growth media (WENR) was altered by removing Wnt3a (W) to generated ENR media, or by removing Wnt3a (W) and adding A83-01 (A) (ENRA). Removal of Wnt3a and addition of A83-01 was necessary for proper differentiation of water-absorbing cultures (FIG. 9B and FIG. 8). […] However, the inclusion of Nic and SB202190 in the WENRNicAST seeding media further suppressed differentiation of secretory cells in human colonic cultures (FIG. 10). […]

[2] = tested on: K^+ absorption in mouse distal colonic cultures; assay: Mouse distal colon K+ transport screening assay
Protocol: Ion transport was determined by sampling the apical and basolateral chambers of the Transwell and analyzing these samples on an ion chromatography system (Thermo Fisher ICS-3000 or ICS-5000+) coupled with conductivity detectors. Chromatographic separation of cations was performed using an IonPac CS12A (Dionex) 2×250 mm analytical column with an isocratic elution using 25 mM methanesulfonic acid. Chromatographic separation of anions was performed using an IonPac AS18 (Dionex) 2×250 mm analytical column with an isocratic elution using 35 mM potassium hydroxide. Concentrations were calculated relative to a standard curve for each analyte ion based on retention time and peak area.
An assay was established to measure K^+ transport in mouse distal colonic cultures. Mouse distal colonic monolayer cultures were prepared in 96-well Transwells according to protocol and were used for assay on day 6, 7, or 8 depending on the TEER value of the culture and its water-absorption phenotype. Wells with a TEER value below 450 Ω·cm^2 were not used for assay. […]
To start the assay, 80 μL of apical media was added to triplicate wells per compound and 130 μL of basolateral media was added to the basolateral compartment. […] K^+ and rubidium ion concentrations were determined using ion chromatography. […]

[3] = tested on: mouse duodenal, jejunal, and ileal cultures; assay: Differentiation of mouse small intestinal monolayer cultures (global gene expression PCC versus tissue, TEER)
Protocol: Approximately 1 μg of the entire isolated RNA was used to prepare each RNA sequencing library. RNA libraries were prepared using the TruSeq Stranded mRNA library preparation kit (Illumina). Most sequencing data were obtained using a NextSeq500 sequencer (Illumina) (2×75 bp, ˜ 30-40 million reads per sample) and some sequencing was performed using a HiSeq sequencer (Illumina) (2×125 bp, ˜ 25-30 million reads per sample). Transcript counts were obtained using the RNA Express application (RNA-Seq reads aligned with the STAR aligner) on the Illumina BaseSpace website.
Pearson correlation coefficients were determined in Microsoft Excel using the Pearson function comparing the transcript count correlation for all genes between two data sets.
On day 2, fresh W2.5ENRY was added to the cultures, and was replaced on day 4. Confluence of the culture was assessed by measuring the TEER. […]
Therefore, global gene expression by RNA sequencing was obtained for 36 culture conditions, taken 4, 6, and 8 days after seeding the cultures, and compared with the gene expression profiles of mouse jejunal villi and crypts. To simplify analysis and to account for changes in global gene expression rather than relying on a handful of marker genes, the Pearson correlation coefficient (PCC) was calculated for the relationship between the gene expression profiles of cultured cells and of mouse jejunal villus cells. […]

For `O=C(NCc1ccccc1)c1csc(Nc2ccncn2)n1` [thiazovivin], the “TEER of human colonic cultures” value [1] was “higher TEER values” and the secretory cell differentiation [1] was “some suppression of secretory cell differentiation”.

In the case of `[O]=[V]([O-])([O-])[O-]` [vanadate], the “block of K^+ absorption” value ([2]; 200 μM vanadate, mouse distal colonic cultures) is reported as “block K^+ absorption completely” and the “Inhibition of K^+ absorption normalized to the mean value of vanadate controls (mean±SD)” value ([2]; vanadate controls, 200 μM, value of 1 = inhibition equivalent to vanadate) is reported as 1.00±0.15.

B1: BMP 4: mouse BMP-4 (Peprotech), bone morphogenetic protein used as differentiation promoting factor (protein, UniProt P21275 293-408, looked up)
Bone morphogenetic protein 4: SPKHHPQRSRKKNKNCRRHSLYVDFSDVGWNDWIVAPPGYQAFYCHGDCPFPLADHLNSTNHAIVQTLVNSVNSSIPKACCVPTELSAISMLYLDEYDKVVLKNYQEMVVEGCGCR
In the case of B1, the “correlation of gene expression of cultures with tissues in the jejunum and ileum (PCC)” value ([3]; 300 ng/mL, dose titration of individual BMPs) is reported as “strong correlations of gene expression” and the “effectiveness at differentiating mouse duodenal, jejunal, and ileal cultures” value ([3]; compared with the BMP mixture (BMP 2, 4, and 7)) is reported as “as effective as the BMP mixture”.
